Experiment: Preliminary tests: lutein added to an aqueous solution under stirring
Format: physicochemical
Conditions: even under strong and prolonged stirring
Source text: As noted, lutein, being a lipophilic molecule, is insoluble in water.

For `CC1=C[C@H](O)CC(C)(C)C1/C=C/C(C)=C/C=C/C(C)=C/C=C/C=C(C)/C=C/C=C(C)/C=C/C1=C(C)C[C@@H](O)CC1(C)C` (stereo partly drawn) [lutein, β, ε-caroten-3,3′-diol], the “behaviour of lutein in aqueous solution (solubility)” value was “for the most part deposits rapidly on the bottom”.
